Measurements as given in ChEMBL document CHEMBL5360672, “Identification of Novel Dual-Target Estrogen Receptor α Degraders with Tubulin Inhibitory Activity for the Treatment of Endocrine-Resistant Breast Cancer” (J Med Chem, 2023).
Calls of active or inactive are those of the source. The rule behind the calls is not given here.

molecular target: T1, Estrogen receptor (Homo sapiens) (UniProt P03372); experiment: Binding affinity to human ERalpha assessed as relative binding affinity incubated under vibration for 1 min followed by 2 hrs incubation under dark condition by fluorescence polarization assay relative to estradiol; conditions: time 121.0 min
T1 sequence (whole entry): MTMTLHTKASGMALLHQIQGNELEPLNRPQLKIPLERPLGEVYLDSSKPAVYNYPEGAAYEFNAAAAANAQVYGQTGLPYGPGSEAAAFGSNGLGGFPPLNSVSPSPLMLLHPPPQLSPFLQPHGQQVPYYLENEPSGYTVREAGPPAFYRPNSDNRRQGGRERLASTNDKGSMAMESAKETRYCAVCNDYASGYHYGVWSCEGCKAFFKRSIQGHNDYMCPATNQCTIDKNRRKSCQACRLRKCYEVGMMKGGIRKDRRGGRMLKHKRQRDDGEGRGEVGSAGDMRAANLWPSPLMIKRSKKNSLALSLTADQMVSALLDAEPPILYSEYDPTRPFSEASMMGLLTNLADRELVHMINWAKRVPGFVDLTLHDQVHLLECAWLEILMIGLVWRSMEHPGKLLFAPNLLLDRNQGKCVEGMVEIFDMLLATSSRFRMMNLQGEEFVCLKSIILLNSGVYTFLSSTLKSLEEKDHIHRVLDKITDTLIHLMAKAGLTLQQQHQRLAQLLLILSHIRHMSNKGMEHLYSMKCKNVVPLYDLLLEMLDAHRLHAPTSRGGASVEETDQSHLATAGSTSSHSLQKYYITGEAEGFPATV

SMILES | RBA [%]
COc1cccc(N(CC(F)(F)F)S(=O)(=O)C2CC3OC2C(c2ccc(NC(=O)CCCCC[Se]C#N)cc2)=C3c2ccc(O)cc2)c1 (stereo not given) | 1.44
N#C[Se]CCCCCC(=O)Nc1ccc(C2=C(c3ccc(O)cc3)C3CC(S(=O)(=O)N(CC(F)(F)F)c4cccc(F)c4)C2O3)cc1 (stereo not given) | 4.64
COc1ccc(N(CC(F)(F)F)S(=O)(=O)C2CC3OC2C(c2ccc(NC(=O)CCCCCCC[Se]C#N)cc2)=C3c2ccc(O)cc2)cc1 (stereo not given) | 0.76
N#C[Se]CCCCCC(=O)Nc1ccc(C2=C(c3ccc(O)cc3)C3CC(S(=O)(=O)N(CC(F)(F)F)c4ccc(F)cc4)C2O3)cc1 (stereo not given) | 7.18
CCN(c1ccccc1Cl)S(=O)(=O)C1CC2OC1C(c1ccc(NC(=O)CCCCC[Se]C#N)cc1)=C2c1ccc(O)cc1 (stereo not given) | 2.69

molecular target: Estrogen receptor beta (Homo sapiens) (UniProt Q92731); experiment: Binding affinity to human ERbeta assessed as relative binding affinity incubated under vibration for 1 min followed by 2 hrs incubation under dark condition by fluorescence polarization assay relative to estradiol; conditions: time 121.0 min
Sequence (Q92731 whole entry): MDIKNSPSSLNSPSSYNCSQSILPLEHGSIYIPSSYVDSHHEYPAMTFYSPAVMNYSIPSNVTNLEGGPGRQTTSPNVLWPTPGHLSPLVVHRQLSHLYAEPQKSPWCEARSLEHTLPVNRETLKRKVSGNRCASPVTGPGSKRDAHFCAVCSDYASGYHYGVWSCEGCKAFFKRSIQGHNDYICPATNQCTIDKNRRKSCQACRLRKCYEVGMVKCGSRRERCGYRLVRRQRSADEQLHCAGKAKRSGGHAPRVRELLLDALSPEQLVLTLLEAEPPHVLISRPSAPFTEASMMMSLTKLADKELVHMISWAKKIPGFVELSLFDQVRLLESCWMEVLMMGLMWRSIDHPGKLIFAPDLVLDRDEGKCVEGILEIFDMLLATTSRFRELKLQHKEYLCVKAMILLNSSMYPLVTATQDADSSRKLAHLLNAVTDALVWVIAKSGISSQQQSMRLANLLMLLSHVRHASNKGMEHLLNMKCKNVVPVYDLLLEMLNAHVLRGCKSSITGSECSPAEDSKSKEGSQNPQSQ

SMILES | RBA [%]
COc1cccc(N(CC(F)(F)F)S(=O)(=O)C2CC3OC2C(c2ccc(NC(=O)CCCCC[Se]C#N)cc2)=C3c2ccc(O)cc2)c1 (stereo not given) | 0.13
N#C[Se]CCCCCC(=O)Nc1ccc(C2=C(c3ccc(O)cc3)C3CC(S(=O)(=O)N(CC(F)(F)F)c4cccc(F)c4)C2O3)cc1 (stereo not given) | 0.1
COc1ccc(N(CC(F)(F)F)S(=O)(=O)C2CC3OC2C(c2ccc(NC(=O)CCCCCCC[Se]C#N)cc2)=C3c2ccc(O)cc2)cc1 (stereo not given) | 0.09
N#C[Se]CCCCCC(=O)Nc1ccc(C2=C(c3ccc(O)cc3)C3CC(S(=O)(=O)N(CC(F)(F)F)c4ccc(F)cc4)C2O3)cc1 (stereo not given) | 0.38
CCN(c1ccccc1Cl)S(=O)(=O)C1CC2OC1C(c1ccc(NC(=O)CCCCC[Se]C#N)cc1)=C2c1ccc(O)cc1 (stereo not given) | 0.09

species: Homo sapiens; experiment: Selectivity ratio of relative binding affinity for human ERalpha to relative binding affinity to human ERbeta; conditions: not given

SMILES | Selectivity ratio
COc1cccc(N(CC(F)(F)F)S(=O)(=O)C2CC3OC2C(c2ccc(NC(=O)CCCCC[Se]C#N)cc2)=C3c2ccc(O)cc2)c1 (stereo not given) | 11.1
N#C[Se]CCCCCC(=O)Nc1ccc(C2=C(c3ccc(O)cc3)C3CC(S(=O)(=O)N(CC(F)(F)F)c4cccc(F)c4)C2O3)cc1 (stereo not given) | 46.4
COc1ccc(N(CC(F)(F)F)S(=O)(=O)C2CC3OC2C(c2ccc(NC(=O)CCCCCCC[Se]C#N)cc2)=C3c2ccc(O)cc2)cc1 (stereo not given) | 8.44
N#C[Se]CCCCCC(=O)Nc1ccc(C2=C(c3ccc(O)cc3)C3CC(S(=O)(=O)N(CC(F)(F)F)c4ccc(F)cc4)C2O3)cc1 (stereo not given) | 18.9
CCN(c1ccccc1Cl)S(=O)(=O)C1CC2OC1C(c1ccc(NC(=O)CCCCC[Se]C#N)cc1)=C2c1ccc(O)cc1 (stereo not given) | 29.9

test system: MCF7; experiment: Antiproliferative activity against ERalpha positive human MCF7 cells assessed as inhibition of cell proliferation incubated for 72 hrs by CCK8 assay; format: functional, cell-based; conditions: MCF7, 72 h

SMILES | IC50 [µM]
COc1cccc(N(CC(F)(F)F)S(=O)(=O)C2CC3OC2C(c2ccc(NC(=O)CCCCC[Se]C#N)cc2)=C3c2ccc(O)cc2)c1 (stereo not given) | 0.47
N#C[Se]CCCCCC(=O)Nc1ccc(C2=C(c3ccc(O)cc3)C3CC(S(=O)(=O)N(CC(F)(F)F)c4cccc(F)c4)C2O3)cc1 (stereo not given) | 0.31
COc1ccc(N(CC(F)(F)F)S(=O)(=O)C2CC3OC2C(c2ccc(NC(=O)CCCCCCC[Se]C#N)cc2)=C3c2ccc(O)cc2)cc1 (stereo not given) | 0.44
N#C[Se]CCCCCC(=O)Nc1ccc(C2=C(c3ccc(O)cc3)C3CC(S(=O)(=O)N(CC(F)(F)F)c4ccc(F)cc4)C2O3)cc1 (stereo not given) | 0.17
CCN(c1ccccc1Cl)S(=O)(=O)C1CC2OC1C(c1ccc(NC(=O)CCCCC[Se]C#N)cc1)=C2c1ccc(O)cc1 (stereo not given) | 0.16

test system: T47D; experiment: Antiproliferative activity against ERalpha positive human T47D cells assessed as inhibition of cell proliferation incubated for 72 hrs by CCK8 assay; format: functional, cell-based; conditions: not given

SMILES | IC50 [µM]
COc1cccc(N(CC(F)(F)F)S(=O)(=O)C2CC3OC2C(c2ccc(NC(=O)CCCCC[Se]C#N)cc2)=C3c2ccc(O)cc2)c1 (stereo not given) | 9.62
N#C[Se]CCCCCC(=O)Nc1ccc(C2=C(c3ccc(O)cc3)C3CC(S(=O)(=O)N(CC(F)(F)F)c4cccc(F)c4)C2O3)cc1 (stereo not given) | 2.87
COc1ccc(N(CC(F)(F)F)S(=O)(=O)C2CC3OC2C(c2ccc(NC(=O)CCCCCCC[Se]C#N)cc2)=C3c2ccc(O)cc2)cc1 (stereo not given) | 20.2
N#C[Se]CCCCCC(=O)Nc1ccc(C2=C(c3ccc(O)cc3)C3CC(S(=O)(=O)N(CC(F)(F)F)c4ccc(F)cc4)C2O3)cc1 (stereo not given) | 5.82
CCN(c1ccccc1Cl)S(=O)(=O)C1CC2OC1C(c1ccc(NC(=O)CCCCC[Se]C#N)cc1)=C2c1ccc(O)cc1 (stereo not given) | 3.11

test system: not listed separately; experiment: Cytotoxicity against human MCF-10A cells assessed as inhibition of cell proliferation incubated for 72 hrs by CCK8 assay; format: toxicity, cell-based; conditions: not given

SMILES | IC50 at 72 h [µM]
COc1cccc(N(CC(F)(F)F)S(=O)(=O)C2CC3OC2C(c2ccc(NC(=O)CCCCC[Se]C#N)cc2)=C3c2ccc(O)cc2)c1 (stereo not given) | 26.9
N#C[Se]CCCCCC(=O)Nc1ccc(C2=C(c3ccc(O)cc3)C3CC(S(=O)(=O)N(CC(F)(F)F)c4cccc(F)c4)C2O3)cc1 (stereo not given) | 4.74
COc1ccc(N(CC(F)(F)F)S(=O)(=O)C2CC3OC2C(c2ccc(NC(=O)CCCCCCC[Se]C#N)cc2)=C3c2ccc(O)cc2)cc1 (stereo not given) | 38.2
N#C[Se]CCCCCC(=O)Nc1ccc(C2=C(c3ccc(O)cc3)C3CC(S(=O)(=O)N(CC(F)(F)F)c4ccc(F)cc4)C2O3)cc1 (stereo not given) | 12.2
CCN(c1ccccc1Cl)S(=O)(=O)C1CC2OC1C(c1ccc(NC(=O)CCCCC[Se]C#N)cc1)=C2c1ccc(O)cc1 (stereo not given) | 17.3

test system: not listed separately; experiment: Selectivity index, ratio of IC50 for cytotoxicity against human MCF-10A cells to IC50 for antiproliferative activity against human MCF7 cells; format: toxicity, cell-based; conditions: MCF-10A cells and MCF7 cells, read-out: Ratio IC50

SMILES | selectivity ratio
COc1cccc(N(CC(F)(F)F)S(=O)(=O)C2CC3OC2C(c2ccc(NC(=O)CCCCC[Se]C#N)cc2)=C3c2ccc(O)cc2)c1 (stereo not given) | 57.1
N#C[Se]CCCCCC(=O)Nc1ccc(C2=C(c3ccc(O)cc3)C3CC(S(=O)(=O)N(CC(F)(F)F)c4cccc(F)c4)C2O3)cc1 (stereo not given) | 15.3
COc1ccc(N(CC(F)(F)F)S(=O)(=O)C2CC3OC2C(c2ccc(NC(=O)CCCCCCC[Se]C#N)cc2)=C3c2ccc(O)cc2)cc1 (stereo not given) | 86.8
N#C[Se]CCCCCC(=O)Nc1ccc(C2=C(c3ccc(O)cc3)C3CC(S(=O)(=O)N(CC(F)(F)F)c4ccc(F)cc4)C2O3)cc1 (stereo not given) | 71.9
CCN(c1ccccc1Cl)S(=O)(=O)C1CC2OC1C(c1ccc(NC(=O)CCCCC[Se]C#N)cc1)=C2c1ccc(O)cc1 (stereo not given) | 108

test system: not listed separately; experiment: Antiproliferative activity against human Tamoxifen-resistant LCC2 cells assessed as inhibition of cell proliferation incubated for 72 hrs by CCK8 assay; format: functional, cell-based; conditions: not given

SMILES | IC50 [µM]
COc1cccc(N(CC(F)(F)F)S(=O)(=O)C2CC3OC2C(c2ccc(NC(=O)CCCCC[Se]C#N)cc2)=C3c2ccc(O)cc2)c1 (stereo not given) | 6.73
N#C[Se]CCCCCC(=O)Nc1ccc(C2=C(c3ccc(O)cc3)C3CC(S(=O)(=O)N(CC(F)(F)F)c4cccc(F)c4)C2O3)cc1 (stereo not given) | 1.97
COc1ccc(N(CC(F)(F)F)S(=O)(=O)C2CC3OC2C(c2ccc(NC(=O)CCCCCCC[Se]C#N)cc2)=C3c2ccc(O)cc2)cc1 (stereo not given) | 10.3
N#C[Se]CCCCCC(=O)Nc1ccc(C2=C(c3ccc(O)cc3)C3CC(S(=O)(=O)N(CC(F)(F)F)c4ccc(F)cc4)C2O3)cc1 (stereo not given) | 4.48
CCN(c1ccccc1Cl)S(=O)(=O)C1CC2OC1C(c1ccc(NC(=O)CCCCC[Se]C#N)cc1)=C2c1ccc(O)cc1 (stereo not given) | 2.17

test system: T47D; experiment: Antiproliferative activity against human T47D cells harboring ERalpha D538G mutant assessed as inhibition of cell proliferation incubated for 72 hrs by CCK8 assay; format: functional, cell-based; conditions: not given

SMILES | IC50 [µM]
COc1cccc(N(CC(F)(F)F)S(=O)(=O)C2CC3OC2C(c2ccc(NC(=O)CCCCC[Se]C#N)cc2)=C3c2ccc(O)cc2)c1 (stereo not given) | 5.16
N#C[Se]CCCCCC(=O)Nc1ccc(C2=C(c3ccc(O)cc3)C3CC(S(=O)(=O)N(CC(F)(F)F)c4cccc(F)c4)C2O3)cc1 (stereo not given) | 2.86
COc1ccc(N(CC(F)(F)F)S(=O)(=O)C2CC3OC2C(c2ccc(NC(=O)CCCCCCC[Se]C#N)cc2)=C3c2ccc(O)cc2)cc1 (stereo not given) | 12.7
N#C[Se]CCCCCC(=O)Nc1ccc(C2=C(c3ccc(O)cc3)C3CC(S(=O)(=O)N(CC(F)(F)F)c4ccc(F)cc4)C2O3)cc1 (stereo not given) | 2.71
CCN(c1ccccc1Cl)S(=O)(=O)C1CC2OC1C(c1ccc(NC(=O)CCCCC[Se]C#N)cc1)=C2c1ccc(O)cc1 (stereo not given) | 2.37

test system: T47D; experiment: Antiproliferative activity against human T47D cells harboring ERalpha Y537S mutant assessed as inhibition of cell proliferation incubated for 72 hrs by CCK8 assay; format: functional, cell-based; conditions: not given

SMILES | IC50 [µM]
COc1cccc(N(CC(F)(F)F)S(=O)(=O)C2CC3OC2C(c2ccc(NC(=O)CCCCC[Se]C#N)cc2)=C3c2ccc(O)cc2)c1 (stereo not given) | 4.58
N#C[Se]CCCCCC(=O)Nc1ccc(C2=C(c3ccc(O)cc3)C3CC(S(=O)(=O)N(CC(F)(F)F)c4cccc(F)c4)C2O3)cc1 (stereo not given) | 3.38
COc1ccc(N(CC(F)(F)F)S(=O)(=O)C2CC3OC2C(c2ccc(NC(=O)CCCCCCC[Se]C#N)cc2)=C3c2ccc(O)cc2)cc1 (stereo not given) | 6.27
N#C[Se]CCCCCC(=O)Nc1ccc(C2=C(c3ccc(O)cc3)C3CC(S(=O)(=O)N(CC(F)(F)F)c4ccc(F)cc4)C2O3)cc1 (stereo not given) | 2.7
CCN(c1ccccc1Cl)S(=O)(=O)C1CC2OC1C(c1ccc(NC(=O)CCCCC[Se]C#N)cc1)=C2c1ccc(O)cc1 (stereo not given) | 2.18

molecular target: T1, Estrogen receptor (Homo sapiens); experiment: Induction of ERalpha degradation in human MCF7 cells at 5 uM incubated for 24 hrs by Western blot analysis relative to SeCN-OBHSA derivatives; format: cell-based; conditions: not given

SMILES | Activity
COc1cccc(N(CC(F)(F)F)S(=O)(=O)C2CC3OC2C(c2ccc(NC(=O)CCCCC[Se]C#N)cc2)=C3c2ccc(O)cc2)c1 (stereo not given) | Active
N#C[Se]CCCCCC(=O)Nc1ccc(C2=C(c3ccc(O)cc3)C3CC(S(=O)(=O)N(CC(F)(F)F)c4cccc(F)c4)C2O3)cc1 (stereo not given) | Active
COc1ccc(N(CC(F)(F)F)S(=O)(=O)C2CC3OC2C(c2ccc(NC(=O)CCCCCCC[Se]C#N)cc2)=C3c2ccc(O)cc2)cc1 (stereo not given) | Active
N#C[Se]CCCCCC(=O)Nc1ccc(C2=C(c3ccc(O)cc3)C3CC(S(=O)(=O)N(CC(F)(F)F)c4ccc(F)cc4)C2O3)cc1 (stereo not given) | Active
CCN(c1ccccc1Cl)S(=O)(=O)C1CC2OC1C(c1ccc(NC(=O)CCCCC[Se]C#N)cc1)=C2c1ccc(O)cc1 (stereo not given) | Active
